# Data published in patent US8791123B2, “Substituted pyrazolo[1,5-a]pyrimidine compounds as Trk kinase inhibitors” (Array Biopharma, Inc., priority 2009, dated 2014).
# Structures can show the parent of a compound that is named as a salt. Where two headings read alike, the source gives them in different places.
# How the values were obtained:
# [1] = target: TrkA (histidine-tagged recombinant human TrkA, cytoplasmic domain) (Homo sapiens (Human), UniProt P04629); assay: TrkA ELISA Assay; assay type: biochemical; conditions: Table 1; ELISA, 500 μM ATP; read-out: TrkA Enzyme IC50
# Description: An enzyme-linked immunosorbant assay (ELISA) was used to assess TrkA kinase activity in the presence of inhibitors. Immulon 4HBX 384-well microtiter plates (Thermo part #8755) were coated with a 0.025 mg/mL solution of poly (Glu, Ala, Tyr; 6:3:1; Sigma P3899). […] The reaction mixture was removed from the plate by washing with PBS containing 0.1% (v/v) Tween 20. The phosphorylated reaction product was detected using 0.2 μg/mL of a phosphotyrosine specific monoclonal antibody (clone PY20) conjugated to horseradish peroxidase in conjunction with the TMB Peroxidase Substrate System (KPL). After the addition of 1M phosphoric acid, the chromogenic substrate color intensity was quantitated via absorbance at 450 nm.
# [2] = target: Human Jak2 kinase domain (Homo sapiens (Human), UniProt O60674); assay: Jak2 Inhibition Assay (Omnia kinase assay); assay type: biochemical; conditions: read-out: Jak2 Enzyme IC50
# Description: The assays described in Examples C, D, E and F for the determination of JAK1, JAK2, JAK3 and Tyk2 kinase activity, respectively, utilized the Omnia® Kinase fluorescence peptide substrate-based technology (Invitrogen). […] The reactions were therefore read at excitation 360 nm and emission was measured at 485 nm every 50 seconds for 45 minutes using a PerkinElmer EnVision Multilabel Plate Reader.
# The final buffer conditions for each of the JAK1, JAK2, JAK3 and Tyk2 assays were as follows: 25 mM HEPES, pH 7.4, 10 mM MgCl2, 0.01% Triton X-100 and 1 mM DTT.
# Two-μL aliquots of these were transferred to a fresh plate for a ten-fold intermediate dilution with assay buffer. Five-μL aliquots of the diluted compounds were then transferred to 20-μL of assay mixtures described in Examples C, D, E and F for a final concentration of DMSO of 2%. […] For each plate, percent of control (POC) values were calculated for each well according to the following equation:
# [formula] • where • Xmax=Average Uninhibited Controls • Xmin=Average Background IC50's were estimated from the POC's using a standard 4-parameter logistic model:
# [formula] • where • A=Minimum Y (Bottom Asymptote) • B=Maximum Y (Top Asymptote) • C=EC50 • D=Slope Factor • X=Compound Concentration (nM) • Y=POC
# The IC50 is defined as the concentration of inhibitor at which the POC equals 50 for the fitted curve.
# Compounds of Formula I were screened for their ability to inhibit Jak2 using the general enzyme inhibition assay method, in which the assay mixture contained 500 μM ATP, 10 μM Omnia® Y7 peptide (Catalog # IVGN KNZ3071C, Invitrogen Corporation, Carlsbad, Calif.) and 4 nM Jak2 in a total volume of 20 μL. Human Jak2 kinase domain comprising amino acids 808-1132 was purchased from Invitrogen Corporation, Carlsbad, Calif. (catalog # IVGN PV4210).
# [3] = Table 1, 500 μM ATP, >1000 nM when >50% inhibition not observed at 1000 nM
# Human Jak2 kinase domain, sequence (O60674 808-1132): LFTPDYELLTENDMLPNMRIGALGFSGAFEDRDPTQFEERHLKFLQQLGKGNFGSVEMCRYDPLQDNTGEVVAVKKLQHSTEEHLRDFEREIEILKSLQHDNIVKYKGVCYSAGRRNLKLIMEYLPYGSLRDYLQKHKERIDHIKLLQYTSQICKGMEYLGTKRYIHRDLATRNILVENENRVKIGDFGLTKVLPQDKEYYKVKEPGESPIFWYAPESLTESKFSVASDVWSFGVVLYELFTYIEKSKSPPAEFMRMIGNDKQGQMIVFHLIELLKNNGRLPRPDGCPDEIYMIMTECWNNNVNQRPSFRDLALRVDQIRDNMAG
# TrkA (histidine-tagged recombinant human TrkA, cytoplasmic domain), sequence (P04629 440-796): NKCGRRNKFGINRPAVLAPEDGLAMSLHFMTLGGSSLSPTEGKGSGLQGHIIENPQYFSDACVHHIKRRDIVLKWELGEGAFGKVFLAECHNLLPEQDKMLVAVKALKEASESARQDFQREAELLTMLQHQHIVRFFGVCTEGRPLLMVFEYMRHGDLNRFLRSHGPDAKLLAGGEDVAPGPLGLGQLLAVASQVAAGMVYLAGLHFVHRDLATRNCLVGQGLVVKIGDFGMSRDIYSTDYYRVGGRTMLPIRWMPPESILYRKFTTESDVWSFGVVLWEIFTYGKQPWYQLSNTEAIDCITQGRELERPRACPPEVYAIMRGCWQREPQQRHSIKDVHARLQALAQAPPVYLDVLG
SMILES,IC50 [1] [nM],"IC50 [2, 3] [nM]",IC50 [2] [nM]
"CONC(=O)c1cnn2ccc(N3CCC[C@@H]3c3cncc(F)c3)nc12 [Example 73, (R)-5-(2-(5-fluoropyridin-3-yl)pyrrolidin-1-yl)-N-methoxypyrazolo[1,5-a]pyrimidine-3-carboxamide]",48.5,> 1000,
"O=C(NCCc1c[nH]cn1)c1cnn2ccc(N3CCC[C@@H]3c3cc(F)ccc3F)nc12 [Example 25, (R)—N-(2-(1H-imidazol-4-yl)ethyl)-5-(2-(2,5-difluorophenyl)pyrrolidin-1-yl)pyrazolo[1,5-a]pyrimidine-3-carboxamide]",0.4,> 1000,
"O=C(N[C@@H]1CCNC[C@@H]1F)c1cnn2ccc(N3CCC[C@@H]3c3cc(F)ccc3F)nc12 [Example 61, 5-((R)-2-(2,5-difluorophenyl)pyrrolidin-1-yl)-N-((3S,4R)-3-fluoropiperidin-4-yl)pyrazolo[1,5-a]pyrimidine-3-carboxamide hydrochloride]",1.95,,699
"CC(C)(CO)NC(=O)c1cnn2ccc(N3CCC[C@@H]3c3cc(F)ccc3F)nc12 [Example 8, (R)-5-(2-(2,5-difluorophenyl)pyrrolidin-1-yl)-N-(1-hydroxy-2-methylpropan-2-yl)pyrazolo[1,5-a]pyrimidine-3-carboxamide]",1.1,> 1000,
"O=C(NC1CCOCC1)c1cnn2ccc(N3CCC[C@@H]3c3cncc(F)c3)nc12 [Example 72, (R)-5-(2-(5-fluoropyridin-3-yl)pyrrolidin-1-yl)-N-(tetrahydro-2H-pyran-4-yl)pyrazolo[1,5-a]pyrimidine-3-carboxamide]",44.4,> 1000,
"O=C(N[C@H]1CC[C@H](O)C1)c1cnn2ccc(N3CCC[C@@H]3c3cncc(F)c3)nc12 [Example 105, 5-((R)-2-(5-fluoropyridin-3-yl)pyrrolidin-1-yl)-N-((1S,3S)-3-hydroxycyclopentyl)pyrazolo[1,5-a]pyrimidine-3-carboxamide]",25.4,> 1000,
"CC(C)(N)CNC(=O)c1cnn2ccc(N3CCC[C@@H]3c3cc(F)ccc3F)nc12 [Example 58, (R)—N-(2-amino-2-methylpropyl)-5-(2-(2,5-difluorophenyl)pyrrolidin-1-yl)pyrazolo[1,5-a]pyrimidine-3-carboxamide]",9.4,> 1000,
"CC(C)(C)NC(=O)c1cnn2ccc(N3C[C@H](O)C[C@@H]3c3cccc(F)c3)nc12 [Example 42, N-tert-butyl-5-((2R,4R)-2-(3-fluorophenyl)-4-hydroxypyrrolidin-1-yl)pyrazolo[1,5-a]pyrimidine-3-carboxamide]",48.3,> 1000,
"O=C(NC1CCOCC1)c1cnn2ccc(N3CCC[C@@H]3c3cc(F)ccc3F)nc12 [Example 20, (R)-5-(2-(2,5-difluorophenyl)pyrrolidin-1-yl)-N-(tetrahydro-2H-pyran-4-yl)pyrazolo[1,5-a]pyrimidine-3-carboxamide]",0.6,257,
"CC(C)(O)CNC(=O)c1cnn2ccc(N3CCC[C@@H]3c3cc(F)ccc3F)nc12 [Example 17, (R)-5-(2-(2,5-difluorophenyl)pyrrolidin-1-yl)-N-(2-hydroxy-2-methylpropyl)pyrazolo[1,5-a]pyrimidine-3-carboxamide]",2.15,> 1000,

# Further lines, with some results ahead:
IC50 [1] [nM],"IC50 [2, 3] [nM]",SMILES,IC50 [2] [nM]
15.6,> 1000,"Cc1ncc(F)cc1[C@H]1CCCN1c1ccn2ncc(C(=O)NC3(CO)CC3)c2n1 [Example 193, (R)-5-(2-(5-fluoro-2-methylpyridin-3-yl)pyrrolidin-1-yl)-N-(1-(hydroxymethyl)cyclopropyl)pyrazolo[1,5-a]pyrimidine-3-carboxamide]",
2.2,444,"COc1ncc(F)cc1[C@H]1CCCN1c1ccn2ncc(C(=O)NC3CCN(S(C)(=O)=O)CC3)c2n1 [Example 162, (R)-5-(2-(5-fluoro-2-methoxypyridin-3-yl)pyrrolidin-1-yl)-N-(1-(methylsulfonyl)piperidin-4-yl)pyrazolo[1,5-a]pyrimidine-3-carboxamide]",
131,> 1000,"COCC(O)CNC(=O)c1cnn2ccc(N3CCCC3c3cncc(F)c3)nc12 [Example 119, 5-((R)-2-(5-fluoropyridin-3-yl)pyrrolidin-1-yl)-N-(2-hydroxy-3-methoxypropyl)pyrazolo[1,5-a]pyrimidine-3-carboxamide]",
27.2,> 1000,"C[C@H](O)[C@@H](CO)NC(=O)c1cnn2ccc(N3CCC[C@@H]3c3cc(F)ccc3F)nc12 [Example 176, 5-((R)-2-(2,5-difluorophenyl)pyrrolidin-1-yl)-N-((2R,3S)-1,3-dihydroxybutan-2-yl)pyrazolo[1,5-a]pyrimidine-3-carboxamide]",
4.5,> 1000,"Cn1cc(F)cc([C@H]2CCCN2c2ccn3ncc(C(=O)NCC4CC4)c3n2)c1=O [Example 232, (R)-N-(cyclopropylmethyl)-5-(2-(5-fluoro-1-methyl-2-oxo-1,2-dihydropyridin-3-yl)pyrrolidin-1-yl)pyrazolo[1,5-a]pyrimidine-3-carboxamide]",
3.2,> 1000,"CC(NC(=O)c1cnn2ccc(N3CCCC3c3cncc(F)c3)nc12)C1CC1 [Example 113, N-(1-cyclopropylethyl)-5-((R)-2-(5-fluoropyridin-3-yl)pyrrolidin-1-yl)pyrazolo[1,5-a]pyrimidine-3-carboxamide]",
6.9,> 1000,"Cc1ncc(F)cc1[C@H]1CCCN1c1ccn2ncc(C(=O)NC(C)(C)C)c2n1 [Example 183, (R)-N-tert-butyl-5-(2-(5-fluoro-2-methylpyridin-3-yl)pyrrolidin-1-yl)pyrazolo[1,5-a]pyrimidine-3-carboxamide]",
12.7,> 1000,"CCc1ncc(F)cc1[C@H]1CCCN1c1ccn2ncc(C(=O)N[C@H]3CC[C@H](O)C3)c2n1 [Example 200, 5-((R)-2-(2-ethyl-5-fluoropyridin-3-yl)pyrrolidin-1-yl)-N-((1S,3S)-3-hydroxycyclopentyl)pyrazolo[1,5-a]pyrimidine-3-carboxamide]",
2.1,> 1000,"COc1ncc(F)cc1[C@H]1CCCN1c1ccn2ncc(C(=O)NC[C@H](C)O)c2n1 [Example 156, 5-((R)-2-(5-fluoro-2-methoxypyridin-3-yl)pyrrolidin-1-yl)-N-((S)-2-hydroxypropyl)pyrazolo[1,5-a]pyrimidine-3-carboxamide]",
10.7,> 1000,"Cn1cc(F)cc([C@H]2CCCN2c2ccn3ncc(C(=O)N[C@@H]4CCCC[C@H]4O)c3n2)c1=O [Example 234, 5-((R)-2-(5-fluoro-1-methyl-2-oxo-1,2-dihydropyridin-3-yl)pyrrolidin-1-yl)-N-((1R,2R)-2-hydroxycyclohexyl)pyrazolo[1,5-a]pyrimidine-3-carboxamide]",
44.4,> 1000,"CC(C)(CO)NC(=O)c1cnn2ccc(N3CCC[C@@H]3c3cncc(F)c3)nc12 [Example 132, (R)-5-(2-(5-fluoropyridin-3-yl)pyrrolidin-1-yl)-N-(1-hydroxy-2-methylpropan-2-yl)pyrazolo[1,5-a]pyrimidine-3-carboxamide]",
8.6,> 1000,"CC1(NC(=O)c2cnn3ccc(N4[C@H](CO)CC[C@@H]4c4cncc(F)c4)nc23)CC1 [Example 214, 5-((2R,5S)-2-(5-fluoropyridin-3-yl)-5-(hydroxymethyl)pyrrolidin-1-yl)-N-(1-methylcyclopropyl)pyrazolo[1,5-a]pyrimidine-3-carboxamide]",
33.2,> 1000,"CC(C)[C@H](CO)NC(=O)c1cnn2ccc(N3CCC[C@@H]3c3cncc(F)c3)nc12 [Example 122, 5-((R)-2-(5-fluoropyridin-3-yl)pyrrolidin-1-yl)-N-((R)-1-hydroxy-3-methylbutan-2-yl)pyrazolo[1,5-a]pyrimidine-3-carboxamide]",
37.2,> 1000,"C[C@@H](O)CNC(=O)c1cnn2ccc(N3CCC[C@@H]3c3cncc(F)c3)nc12 [Example 110, 5-((R)-2-(5-fluoropyridin-3-yl)pyrrolidin-1-yl)-N-((R)-2-hydroxypropyl)pyrazolo[1,5-a]pyrimidine-3-carboxamide]",
